Assay results reported in patent US10538534B2 (Colorado State University Research Foundation, priority 2015, dated 2020).
Like-named read-outs stand apart in the source and are kept apart here.

How the values were obtained:
Solubility in solvents = test: Solubility in solvents
Protocol: Trityl thiol was dissolved in 0.6 mL of DCM and cooled to 0° C. TFA (30 μL) and iPr3SiH (2.0 μL, 10 μmol) were added to the solution at 0° C. The bath was removed and the reaction was allowed to stir at room temperature for 1 h. Solvent was removed by argon flow and the residue 14 is taken crude for biological evaluation.

[1] = tested on: NOTCH1 mutated T-ALL cells (ALL/SIL); test: ATP-based cell viability assay (CellTiter-Glo) in T-ALL cells; settings: ALL/SIL, 72, 144, 216 hours, 10 μM to 0.078 μM, FIGS. 14-16
Protocol: (§1) To test the hypothesis that largazole folate-conjugated small molecules target T-ALL, dose-ranging ATP content assays were performed. […] Next, an ATP-based assay (CellTiter-Glo, Promega®) was used to calculate the half-maximal inhibitory concentration (IC50) of cell viability. Graphs were plotted as a fraction of cells alive (y-axis) using Prism GraphPad 6 software and drug doses expressed as Log [μM] (x-axis).

[2] = tested on: NOTCH1 mutated T-ALL cells (DND41); test: as above; settings: DND41, 72, 144, 216 hours, 10 μM to 0.078 μM, FIGS. 11-13
Protocol: as §1

Class I HDAC = test: HDAC biochemical selectivity profiling; settings: FIG. 1B, versus free Largazole-thiol
HDACs1, 2 & 3 = test: Affinity precipitation from HeLa Nuclear Extract with streptavidin beads, immunoblot; format: binding; settings: 1 μM in 200 μL HeLa Nuclear Extract, 16 hr incubation, FIG. 1C
Protocol: 1 μM Largazole-Btn (54) in 200 μL of HeLa Nuclear Extract […] of streptavidin beads added after 16 hr incubation with compound.

HDAC8 = target: T1, HDAC8 (Homo sapiens, UniProt Q9BY41); test: Biochemical profiling for HDACi activity, miniaturized assay platform (HDAC1-9); settings: compared with IC50 for HDACs 1-3
T1 sequence (Q9BY41 1-377): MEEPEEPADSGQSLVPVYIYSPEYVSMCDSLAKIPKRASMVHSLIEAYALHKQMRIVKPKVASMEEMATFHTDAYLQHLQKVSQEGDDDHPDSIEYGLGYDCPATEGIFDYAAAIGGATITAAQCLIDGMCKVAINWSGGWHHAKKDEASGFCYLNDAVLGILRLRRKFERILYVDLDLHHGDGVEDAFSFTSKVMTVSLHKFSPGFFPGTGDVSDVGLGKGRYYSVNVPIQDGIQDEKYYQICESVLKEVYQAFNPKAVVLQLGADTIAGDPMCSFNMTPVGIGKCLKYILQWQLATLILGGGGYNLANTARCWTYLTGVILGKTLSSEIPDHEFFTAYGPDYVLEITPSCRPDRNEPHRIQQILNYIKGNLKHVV

HDAC2 = HDAC2 (Homo sapiens, UniProt Q92769); test: as above
tumor = test: In vivo tumor growth inhibition study
From the text: Although the distribution effect of these compounds is similar, there is a notable difference in drug exposure of ˜30 percent for the peptide isostere.

HDAC1 = HDAC1 (Homo sapiens, UniProt Q13547); test: Biochemical profiling for HDACi activity, miniaturized assay platform (HDAC1-9)
HDAC1, sequence (Q13547 whole entry): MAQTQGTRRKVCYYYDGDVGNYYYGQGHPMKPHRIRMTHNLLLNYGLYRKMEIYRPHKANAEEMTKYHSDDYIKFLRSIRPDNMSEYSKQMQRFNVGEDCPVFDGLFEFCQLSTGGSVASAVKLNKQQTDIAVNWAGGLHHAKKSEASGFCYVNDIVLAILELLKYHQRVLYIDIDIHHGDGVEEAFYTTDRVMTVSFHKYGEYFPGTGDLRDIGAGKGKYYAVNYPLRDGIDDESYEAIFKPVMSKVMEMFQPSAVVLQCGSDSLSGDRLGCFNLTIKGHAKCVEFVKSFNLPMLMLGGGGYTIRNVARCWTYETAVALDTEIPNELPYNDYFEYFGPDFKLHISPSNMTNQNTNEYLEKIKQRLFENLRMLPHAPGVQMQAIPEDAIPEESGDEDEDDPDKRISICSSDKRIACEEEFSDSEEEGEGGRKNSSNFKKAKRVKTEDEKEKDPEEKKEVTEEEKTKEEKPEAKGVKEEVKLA

HDAC2, sequence (Q92769 whole entry): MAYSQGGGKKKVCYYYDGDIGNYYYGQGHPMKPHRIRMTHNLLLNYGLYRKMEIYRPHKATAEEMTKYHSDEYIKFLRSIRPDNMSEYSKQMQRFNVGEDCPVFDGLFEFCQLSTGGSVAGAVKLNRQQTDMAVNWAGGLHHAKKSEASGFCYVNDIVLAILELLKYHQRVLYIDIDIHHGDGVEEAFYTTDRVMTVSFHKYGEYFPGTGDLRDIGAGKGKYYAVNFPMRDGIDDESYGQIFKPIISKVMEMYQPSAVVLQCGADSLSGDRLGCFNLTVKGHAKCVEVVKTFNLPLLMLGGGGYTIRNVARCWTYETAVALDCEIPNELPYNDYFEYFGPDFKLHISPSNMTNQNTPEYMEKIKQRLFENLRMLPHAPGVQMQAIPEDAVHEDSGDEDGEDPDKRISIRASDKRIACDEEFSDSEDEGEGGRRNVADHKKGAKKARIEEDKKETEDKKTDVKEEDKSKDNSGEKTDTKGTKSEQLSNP

For `CC(C)C1NC(=O)[C@]2(C)CSC(=N2)c2nc(sc2-c2ccc(CNC(=O)CC[C@H](NC(=O)c3ccc(NCc4cnc5nc(N)[nH]c(=O)c5n4)cc3)C(=O)O)cc2)CNC(=O)CC(/C=C/CCS)NC1=O` (some centres unmarked), which “solubility (solvents)” value (Solubility in solvents; FIG. 10 legend) is on record?
The value was “only soluble in DMSO”.

Which “solubility (solvents)” value (Solubility in solvents) does the source give for `CCCCCCCC(=O)SCC/C=C/C1CC(=O)NCc2nc(c(-c3ccc(CNC(=O)CC[C@H](NC(=O)c4ccc(NCc5cnc6nc(N)[nH]c(=O)c6n5)cc4)C(=O)O)cc3)s2)C2=N[C@@](C)(CS2)C(=O)NC(C(C)C)C(=O)N1` (some centres unmarked) here?
The value was “soluble in mixture of CH2Cl2-MeOH, or DMSO”.

Which results are given for `CCCCCCCC(=O)SCC/C=C/C1CC(=O)NCc2nc(c(-c3ccc(COC(=O)CC[C@H](NC(=O)c4ccc(NCc5cnc6nc(N)[nH]c(=O)c6n5)cc4)C(=O)O)cc3)s2)C2=N[C@@](C)(CS2)C(=O)NC(C(C)C)C(=O)N1` (some centres unmarked)?
cell viability [1]: loss of cellular viability; cell viability [2]: loss of cellular viability; solubility (solvents) (Solubility in solvents; FIG. 10 legend): soluble in MeOH, CHCl3, DMSO

Which “solubility in organic solvent” value (Solubility in solvents; crude product) does the source give for `CC(C)[C@@H]1NC(=O)[C@]2(C)CSC(=N2)c2nc(sc2-c2ccc(CNC(=O)CC[C@H](NC(=O)c3ccc(NCc4cnc5nc(N)[nH]c(=O)c5n4)cc3)C(=O)O)cc2)CNC(=O)CC(/C=C/CCS)NC1=O` (some centres unmarked) [Compound 14] here?
Its value is “very poor”.

And the solubility in water (Solubility in solvents; crude product)?
Its solubility in water is “not soluble in water”.

Which results are given for `CC(C)[C@@H]1NC(=O)[C@]2(C)CSC(=N2)c2nc(sc2-c2ccc(CNC(=O)CCCCCNC(=O)CCCCCNC(=O)CCCCC3SC[C@@H]4NC(=O)N[C@H]34)cc2)CNC(=O)CC(/C=C/CCS)OC1=O` (some centres unmarked) [Largazole-Biotin]?
biochemical selectivity (Class I HDAC): compares favorably to free Largazole-thiol; affinity precipitation of HDACs by immunoblot (HDACs1, 2 & 3): affinity precipitation of HDACs1, 2 & 3

Which results are given for `CCCCCCCC(=O)SCC/C=C/[C@@H]1CC(=O)NCc2nc(cs2)C2=N[C@@](C)(CS2)C(=O)N[C@@H](C(C)C)C(=O)O1` [Largazole]?
IC50 HDAC8 (HDAC8): much higher; IC50 (HDAC2): < 20 nM; tumor growth inhibition (tumor): 34%; IC50 (HDAC1): < 20 nM

Which tumor growth inhibition (tumor) does the source give for largazole thiol here?
The tumor growth inhibition was 44%.
